This is an account of results in ChEMBL document CHEMBL3352079, “Pyrimidine-based tricyclic molecules as potent and orally efficacious inhibitors of wee1 kinase” (ACS Med Chem Lett, 2015).

Data set [1] deals with T1, Wee1-like protein kinase (Homo sapiens, UniProt P30291). Put plainly: Inhibition of GST-tagged human Wee1.
The target in data set [2] is T1, Wee1-like protein kinase. Put plainly: Inhibition of human Weel1 in human NCI-H1299 cells assessed as phosphorylation of Cdk1 after overnight incubation by ELISA PD assay. The data set is classed as cell-based.
Data set [3] deals with NCI-H1299. The data set is described as follows: Cytotoxicity against human NCI-H1299 cells assessed as cell viability after 72 hrs by CellTiterGlo assay. The data set is classed as functional, cell-based. Conditions: NCI-H1299, 72 h.
A short description of data set [4]: Half life in CD-1 mouse at 3 mg/kg, iv. Conditions: in vivo. The data set is classed as ADME, organism-based. Further details: dose 3 mg/kg, route intravenous.
A short description of data set [5]: Clearance in CD-1 mouse at 3 mg/kg, iv. Conditions: in vivo. The data set is classed as ADME, organism-based. More on the design: dose 3 mg/kg, route intravenous.
Data set [6] in a line: AUC in CD-1 mouse at 10 mg/kg, po. The data set is classed as ADME, organism-based. More on the design: dose 10 mg/kg, route oral. Conditions: plasma.
Data set [7] in a line: Oral bioavailability in CD-1 mouse at 10 mg/kg. The data set is classed as ADME, organism-based. Conditions: in vivo.
Data set [8] has as its system NCI-H1299. Put plainly: Antitumor activity against human NCI-H1299 cells xenografted in mouse assessed as tumor growth inhibition at 10 mg/kg, po qd from day 28 to 41 after tumor inoculation. The data set is classed as functional. Conditions: NCI-H1299, 672 h, read-out: TGI.
The test system of data set [9] is NCI-H1299. Put plainly: Antitumor activity against human NCI-H1299 cells xenografted in mouse assessed as tumor growth inhibition at 50 mg/kg, po qd from day 28 to 41 after tumor inoculation in presence of 10 mg/kg irinotecan. The data set is classed as functional.
Data set [10] in a line: Drug uptake in human NCI-H1299 cells xenografted in mouse assessed in tumor at 100 mg/kg, po qd after 10 hrs. Further details: dose 100 mg/kg, route oral. The data set is classed as ADME, organism-based, Neoplasm. Conditions: read-out: Drug uptake.
The test system of data set [11] is NCI-H1299. The data set is described as follows: Antitumor activity against human NCI-H1299 cells xenografted in mouse assessed as tumor growth delay at 50 mg/kg, po qd from day 28 to 41 after tumor inoculation in presence of 10 mg/kg irinotecan. The data set is classed as functional.
For data set [12], the system named is NCI-H1299. Put plainly: Antitumor activity against human NCI-H1299 cells xenografted in mouse assessed as depletion of pY15 bands at 100 mg/kg, po after 10 hrs. The data set is classed as functional, organism-based. Further details: dose 100 mg/kg.
For data set [13], the system named is NCI-H1299. Put plainly: Antitumor activity against human NCI-H1299 cells xenografted in mouse assessed as depletion of pY15 bands at 100 mg/kg, po after 6 hrs. The data set is classed as functional, organism-based. More on the design: dose 100 mg/kg.
The subject of data set [14] is NCI-H1299. The data set is described as follows: Antitumor activity against human NCI-H1299 cells xenografted in mouse assessed as tumor growth inhibition at 50 mg/kg, po qd from day 28 to 41 after tumor inoculation. The data set is classed as functional. Conditions: NCI-H1299, 672 h, read-out: TGI.
Data set [15] is described as follows: Drug uptake in human NCI-H1299 cells xenografted in mouse assessed in tumor at 100 mg/kg, po qd after 6 hrs. The data set is classed as ADME, organism-based, Neoplasm. Conditions: read-out: Drug uptake. More on the design: dose 100 mg/kg, route oral.
Data set [16] in a line: Plasma concentration in human NCI-H1299 cells xenografted in mouse at 100 mg/kg, po qd after 6 hrs. The data set is classed as ADME, organism-based. Further details: dose 100 mg/kg, route oral.
Data set [17] concerns Mus musculus. The data set is described as follows: In vivo inhibition of Wee1 in human NCI-H1299 cells xenografted in mouse assessed as pY15 CDK expression at 100 mg/kg, po qd after 6 to 10 hrs. The data set is classed as functional, organism-based. More on the design: dose 100 mg/kg.
A short description of data set [18]: Plasma concentration in human NCI-H1299 cells xenografted in mouse at 100 mg/kg, po qd after 10 hrs. The data set is classed as ADME, organism-based. More on the design: dose 100 mg/kg, route oral.

Each structure is given as a SMILES string. The source made the active and inactive calls. The calls are words filed in the database; no cut-off is given here. Bounds are passed on as bounds.

T1 sequence (P30291 whole entry): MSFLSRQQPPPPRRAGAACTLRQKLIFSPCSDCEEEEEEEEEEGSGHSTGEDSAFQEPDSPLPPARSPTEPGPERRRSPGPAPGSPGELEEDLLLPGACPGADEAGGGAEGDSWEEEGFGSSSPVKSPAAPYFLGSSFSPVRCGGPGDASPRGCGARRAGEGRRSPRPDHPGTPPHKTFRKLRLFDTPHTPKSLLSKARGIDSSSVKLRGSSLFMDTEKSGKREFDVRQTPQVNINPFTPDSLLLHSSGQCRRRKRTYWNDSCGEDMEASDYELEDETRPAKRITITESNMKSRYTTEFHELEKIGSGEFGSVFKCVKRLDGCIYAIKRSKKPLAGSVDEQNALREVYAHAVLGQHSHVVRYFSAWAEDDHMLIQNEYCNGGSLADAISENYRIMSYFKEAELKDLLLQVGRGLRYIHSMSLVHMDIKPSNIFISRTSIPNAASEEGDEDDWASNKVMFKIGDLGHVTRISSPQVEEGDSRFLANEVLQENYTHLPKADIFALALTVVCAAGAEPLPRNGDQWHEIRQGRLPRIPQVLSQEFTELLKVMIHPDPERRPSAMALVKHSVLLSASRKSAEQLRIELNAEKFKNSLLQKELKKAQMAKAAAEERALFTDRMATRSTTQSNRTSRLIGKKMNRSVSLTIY

The compound `CC(=O)N1CCN(c2ccc(Nc3ncc4c(=O)n(-c5ccccc5Cl)c5nccn5c4n3)cc2)CC1` showed a Ki in data set [1] of 6.6 nM. For the same compound, the EC50 is 1100 nM in [2] and 3300 nM in [3].

The compound `CN1CCCc2ccc(Nc3ncc4c(=O)n(-c5ccccc5Cl)c5nccn5c4n3)cc21` gave a Ki in data set [1] of 8.6 nM. Moreover, the EC50 is 2300 nM in data set [2] and > 10000 nM in data set [3].

Turning to `CN1CCN(c2ccc(Nc3ncc4c(=O)n(-c5c(F)cccc5Cl)c5nccn5c4n3)cc2)CC1`, the EC50 in data set [3] stood at 450 nM.

With `CN1CCN(c2ccc(Nc3ncc4c(=O)n(-c5c(Cl)cccc5Cl)c5nccn5c4n3)cc2)CC1`, the half-life in [4] is 1.7 h. For the same compound, the inhibition constant Ki in data set [1] is < 1 nM. The values for the EC50 in data set [2] and in data set [3] were 87 nM and 190 nM, respectively. Further, the clearance in data set [5] is 33.3 mL/min/kg. In data set [6], this compound yielded an AUC of 6.5 µM·h. The compound also gave a bioavailability in data set [7] of 55%.

Compound `CN1Cc2cc(Nc3ncc4c(=O)n(-c5ccccc5Cl)c5nccn5c4n3)ccc2C(C)(C)C1` gave a half-life in [4] of 2.8 h. For the same compound, the Ki in data set [1] was < 1 nM. Moreover, the figures for the EC50 in data set [2] and in data set [3] were 98 nM and 550 nM, respectively. This compound also gave a clearance in data set [5] of 23.3 mL/min/kg. For the same compound, the AUC in data set [6] amounted to 12.3 µM·h. For the same compound, the bioavailability in [7] was found to be 80%.

Take `O=c1c2cnc(Nc3ccccc3)nc2n2ccnc2n1-c1ccccc1Cl`: affinity in data set [1] was put at a Ki of 21 nM. Also, the EC50 in [2] was 6800 nM; in data set [3], 5900 nM.

In data set [1], `CN1CCCc2cc(Nc3ncc4c(=O)n(-c5ccccc5Cl)c5nccn5c4n3)ccc21` had a Ki of 7.4 nM. Moreover, the EC50 amounted to 2700 nM in data set [2] and 9300 nM in data set [3].

With `CN1Cc2cc(Nc3ncc4c(=O)n(-c5c(Cl)cccc5Cl)c5nccn5c4n3)ccc2C(C)(C)C1`, the half-life in [4] was 3.9 h. In addition, in data set [1], the Ki is < 1 nM. The EC50 is < 13 nM in data set [2] and 230 nM in [3]. The clearance in data set [5] was 16.2 mL/min/kg. The same compound came in with an AUC in [6] of 9.8 µM·h. The bioavailability in data set [7] came to 49%.

Regarding `CCc1c2c(nc3ccc(OC(=O)N4CCC(N5CCCCC5)CC4)cc13)-c1cc3c(c(=O)n1C2)COC(=O)[C@]3(O)CC` [IRINOTECAN], in data set [8], the inhibition in vivo at 10 mg/kg worked out at 67%. Also, the TGI in data set [9] is 83%.

On to `CN1Cc2cc(Nc3ncc4c(=O)n(-c5c(Cl)cccc5Cl)c5nccn5c4n3)ccc2C2(CC2)C1`, for which the Ki in [1] was < 1 nM. Moreover, the EC50 in [2] came to 27 nM; in [3], 220 nM.

In turn, `CN1Cc2cc(Nc3ncc4c(=O)n(-c5c(F)cccc5Cl)c5nccn5c4n3)ccc2C2(CC2)C1` showed a half-life in [4] of 2.6 h. Further, the Ki in data set [1] is < 1 nM. Also, the values for the EC50 in data set [2] and in data set [3] were 29 nM and 210 nM, respectively. This compound also had a clearance in data set [5] of 18.3 mL/min/kg. The same compound had an AUC in data set [6] of 12 µM·h. This compound displayed a bioavailability in data set [7] of 68%.

As for `O=c1c2cnc(Nc3ccc4c(c3)CCCC4)nc2n2ccnc2n1-c1ccccc1Cl`, the inhibitory constant (Ki) in data set [1] came out at 26 nM. The EC50 in data set [2] is 6000 nM; in data set [3] it was 7300 nM.

For `CN1CCc2ccc(Nc3ncc4c(=O)n(-c5ccccc5Cl)c5nccn5c4n3)cc2C1`, the half-life in [4] was 1.5 h. For the same compound, the Ki in data set [1] worked out at 1.6 nM. The EC50 was 220 nM in data set [2] and 770 nM in [3]. The compound also gave a clearance in data set [5] of 36.7 mL/min/kg. In data set [6], this compound had an AUC of 5.2 µM·h. The bioavailability in data set [7] worked out at 52%.

In turn, `CN1CCC(c2ccc(Nc3ncc4c(=O)n(-c5ccccc5Cl)c5nccn5c4n3)cc2)CC1` returned a Ki in [1] of 8.3 nM. For the same compound, the EC50 was 3100 nM in data set [2] and 9600 nM in data set [3].

For `CN1Cc2cc(Nc3ncc4c(=O)n(-c5c(F)cccc5Cl)c5nccn5c4n3)ccc2C(C)(C)C1`, the concentration at 10 h worked out at 53.4 µM in data set [10] and 13.7 µM in [18]. The Activity in data set [11] is 25%. In [4], this compound had a half-life of 2.8 h. The inhibition entry in data set [12], in data set [13] and in data set [17] was “Active” throughout. In data set [14], the inhibition in vivo at 50 mg/kg is 43%. In addition, the Ki in data set [1] was < 1 nM. Also, the figures for the EC50 in data set [2] and in data set [3] were 60 nM and 310 nM, respectively. In addition, in [5], the clearance was 9.17 mL/min/kg. Further, the results for the concentration at 6 h in [15] and in data set [16] were 47.1 µM and 20 µM, respectively. In addition, in data set [6], the AUC turned out to be 24 µM·h. Further, the TGI in [9] turned out to be 83%. The bioavailability in data set [7] was 94%.

In data set [1], `O=c1c2cnc(Nc3ccc(C4CCCCC4)cc3)nc2n2ccnc2n1-c1ccccc1Cl` had a Ki of 87 nM. For the same compound, the EC50 in data set [2] is 10000 nM; in data set [3], > 10000 nM.

The compound `O=c1c2cnc(Nc3ccc(N4CCCCC4)cc3)nc2n2ccnc2n1-c1ccccc1Cl` came in with a Ki in data set [1] of 5.5 nM. Besides, the EC50 in data set [2] amounted to 3800 nM; in [3], 9800 nM.

`CN1Cc2cc(Nc3ncc4c(=O)n(-c5ccccc5Cl)c5nccn5c4n3)ccc2C2(CC2)C1`: the half-life in [4] was 2.3 h. The Ki in data set [1] is 1.2 nM. The EC50 in data set [2] is 100 nM; in data set [3], 690 nM. The same compound had a clearance in data set [5] of 25 mL/min/kg. This compound displayed an AUC in [6] of 9.8 µM·h. Further, the bioavailability in data set [7] worked out at 70%.

For `CN1CCN(c2ccc(Nc3ncc4c(=O)n(-c5ccccc5Cl)c5nccn5c4n3)cc2)CC1`, the half-life in [4] was 1.9 h. This compound also returned a Ki in data set [1] of 2.3 nM. The EC50 stood at 370 nM in data set [2] and 1000 nM in data set [3]. The compound further showed a clearance in data set [5] of 30 mL/min/kg. In data set [6], this compound showed an AUC of 8.4 µM·h. In [7], this compound gave a bioavailability of 72%.

For `CC(=O)N1Cc2cc(Nc3ncc4c(=O)n(-c5ccccc5Cl)c5nccn5c4n3)ccc2C2(CC2)C1`, affinity in data set [1] was put at a Ki of 5.4 nM. The EC50 was 620 nM in data set [2] and 2000 nM in data set [3].

In [1], `CN1CCN(c2cccc(Nc3ncc4c(=O)n(-c5ccccc5Cl)c5nccn5c4n3)c2)CC1` had a Ki of 6.2 nM. The EC50 in data set [2] is 1500 nM; in data set [3] it was 6500 nM.

On to `O=c1c2cnc(NC3CCCCC3)nc2n2ccnc2n1-c1ccccc1Cl`, for which the Ki in [1] was > 3140 nM.

Consider `CN1CCN(c2ccccc2Nc2ncc3c(=O)n(-c4ccccc4Cl)c4nccn4c3n2)CC1`, for which, in [1], the Ki was > 3140 nM.
